A word on the EC50: it is the concentration needed to bring the measured effect to its halfway point.

Results on 37 compounds are retold here after patent US20240246937A1 (MERCK SHARP & DOHME LLC, priority 2021, published 2024).

For this experiment, the target named is recombinant IL4I1 (Homo sapiens (Human), UniProt Q96RQ9). Kind of experiment: IL4I1 Enzymatic Assay (Amplex Red/HRP coupled fluorescence detection of H2O2). Particulars: 240 min; recombinant IL4I1, four-hour pre-incubation with compound. It counts as biochemical. An outline of the steps: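 Ten-point, 1:3 compound titrations were fitted by four-parameter sigmoidal regression to give EC50. Resorufin fluorescence (544/590 nm) from Amplex Red/HRP-coupled H2O2 detection was read 120 min after adding 1 mM each aromatic amino acid to 1 nM IL4I1, following a 4 h compound pre-incubation in pH 7.0 Hepes buffer.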
Sequence of recombinant IL4I1 (Q96RQ9 22-567): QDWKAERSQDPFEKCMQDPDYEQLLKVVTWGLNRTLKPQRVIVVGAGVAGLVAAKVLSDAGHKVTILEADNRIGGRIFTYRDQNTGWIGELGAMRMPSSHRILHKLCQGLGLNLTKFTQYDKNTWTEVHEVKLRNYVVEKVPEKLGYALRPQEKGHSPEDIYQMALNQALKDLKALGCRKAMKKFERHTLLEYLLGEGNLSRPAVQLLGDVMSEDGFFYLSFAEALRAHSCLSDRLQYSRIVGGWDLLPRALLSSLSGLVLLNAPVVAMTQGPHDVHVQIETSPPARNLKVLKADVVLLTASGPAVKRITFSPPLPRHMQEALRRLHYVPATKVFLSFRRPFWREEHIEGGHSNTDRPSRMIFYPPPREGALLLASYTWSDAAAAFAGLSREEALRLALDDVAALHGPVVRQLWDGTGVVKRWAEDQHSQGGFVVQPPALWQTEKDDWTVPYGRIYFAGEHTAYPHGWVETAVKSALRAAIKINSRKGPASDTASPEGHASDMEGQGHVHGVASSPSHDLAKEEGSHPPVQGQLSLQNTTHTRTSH
Turning to `CC(C)(C)CN1CCN(Cc2ncc(-c3ccccc3)cn2)C(=O)C1=O` [Example 287, 1-neopentyl-4-((5-phenylpyrimidin-2-yl)methyl)piperazine-2,3-dione], the EC50 is 34 nM. For `CC(CF)N1CCN(Cc2ncc(-c3ccccc3)cn2)C(=O)C1=O` (stereo not shown) [Example 288, 1-(1-fluoropropan-2-yl)-4-((5-phenylpyrimidin-2-yl)methyl)piperazine-2,3-dione], the EC50 came to 37 nM. In the case of `O=C1C(=O)N(C2CC(F)C2)CCN1Cc1nnc(-c2ccccc2)s1` (stereo not shown) [Example 290, 1-(3-fluorocyclobutyl)-4-((5-phenyl-1,3,4-thiadiazol-2-yl)methyl)piperazine-2,3-dione], the EC50 amounted to 8 nM.

On to `O=C1C(=O)N(C2CC(C3CC3)C2)CCN1Cc1nnc(-c2ccccc2)s1` (stereo not shown) [Example 291, 1-(3-cyclopropylcyclobutyl)-4-((5-phenyl-1,3,4-thiadiazol-2-yl)methyl)piperazine-2,3-dione], for which the EC50 was 4 nM. Under `O=C1C(=O)N(c2ccccc2)CCN1Cc1ncc(-c2ccccc2)cn1` [Example 292, 1-phenyl-4-((5-phenylpyrimidin-2-yl)methyl)piperazine-2,3-dione] stands 64 nM. The figure for `[2H]C1(n2ccn(Cc3nnc(-c4ccccc4)s3)c(=O)c2=O)CCCC1` [Example 293, 1-(cyclopentyl-1-d)-4-((5-phenyl-1,3,4-thiadiazol-2-yl)methyl)-1,4-dihydropyrazine-2,3-dione] is 11 nM. Under `O=C1C(=O)N(C23CC(F)(C2)C3)CCN1Cc1nnc(-c2ccccc2)s1` [Example 294, 1-(3-fluorobicyclo[1.1.1]pentan-1-yl)-4-((5-phenyl-1,3,4-thiadiazol-2-yl)methyl)piperazine-2,3-dione] stands 16 nM; under `N#CC12CC(N3CCN(Cc4nnc(-c5ccccc5)s4)C(=O)C3=O)(C1)C2` [Example 295, 3-(2,3-dioxo-4-((5-phenyl-1,3,4-thiadiazol-2-yl)methyl)piperazin-1-yl)bicyclo[1.1.1]pentane-1-carbonitrile], 53 nM. With `CC12CC(N3CCN(Cc4nnc(-c5ccccc5)s4)C(=O)C3=O)(CO1)C2` [Example 296, 1-(1-methyl-2-oxabicyclo[2.1.1]hexan-4-yl)-4-((5-phenyl-1,3,4-thiadiazol-2-yl)methyl)piperazine-2,3-dione], the half-maximal effective concentration (EC50) stood at 63 nM.

On to `COc1ccc(C2(N3CCN(Cc4nnc(-c5ccccc5)s4)C(=O)C3=O)CC2)nc1` [Example 297, 1-(1-(5-methoxypyridin-2-yl)cyclopropyl)-4-((5-phenyl-1,3,4-thiadiazol-2-yl)methyl)piperazine-2,3-dione], for which the EC50 came out at 83 nM. The figure for `O=C1C(=O)N(C2(C(F)(F)F)CCC2)CCN1Cc1nnc(-c2ccccc2)s1` [Example 298, 1-((5-phenyl-1,3,4-thiadiazol-2-yl)methyl)-4-(1-(trifluoromethyl)cyclobutyl)piperazine-2,3-dione] is 32 nM; for `COCC(C)(C)N1CCN(Cc2nnc(-c3ccccc3)s2)C(=O)C1=O` [Example 299, 1-(1-methoxy-2-methylpropan-2-yl)-4-((5-phenyl-1,3,4-thiadiazol-2-yl)methyl)piperazine-2,3-dione] it is 56 nM; for `CC(C)(c1cccnc1)N1CCN(Cc2nnc(-c3ccccc3)s2)C(=O)C1=O` [Example 300, 1-((5-phenyl-1,3,4-thiadiazol-2-yl)methyl)-4-(2-(pyridin-3-yl)propan-2-yl)piperazine-2,3-dione] it is 86 nM. The figure for `O=C1C(=O)N(C23CCC(CC2=O)C3)CCN1Cc1nnc(-c2ccccc2)s1` (stereo not shown) [Example 301, 1-(2-oxobicyclo[2.2.1]heptan-1-yl)-4-((5-phenyl-1,3,4-thiadiazol-2-yl)methyl)piperazine-2,3-dione] is 67 nM. The figure for `CC1(N2CCN(Cc3nnc(-c4ccccc4)s3)C(=O)C2=O)COC1` [Example 302, 1-(3-methyloxetan-3-yl)-4-((5-phenyl-1,3,4-thiadiazol-2-yl)methyl)piperazine-2,3-dione] is 69 nM; for `CC1(N2CCN(Cc3nnc(-c4ccccc4)s3)C(=O)C2=O)CC1` [Example 303, 1-(1-methylcyclopropyl)-4-((5-phenyl-1,3,4-thiadiazol-2-yl)methyl)piperazine-2,3-dione] it is 28 nM.

Turning to `O=C1C(=O)N(C2(c3ccncc3)CC2)CCN1Cc1nnc(-c2ccccc2)s1` [Example 304, 1-((5-phenyl-1,3,4-thiadiazol-2-yl)methyl)-4-(1-(pyridin-4-yl)cyclopropyl)piperazine-2,3-dione], the EC50 stood at 98 nM. As for `O=C1C(=O)N(C2(CF)CC2)CCN1Cc1nnc(-c2ccccc2)s1` [Example 305, 1-(1-(fluoromethyl)cyclopropyl)-4-((5-phenyl-1,3,4-thiadiazol-2-yl)methyl)piperazine-2,3-dione], the EC50 came to 32 nM.

On to `CC1(N2CCN(Cc3nnc(-c4ccccc4)s3)C(=O)C2=O)CCCCC1` [Example 306, 1-(1-methylcyclohexyl)-4-((5-phenyl-1,3,4-thiadiazol-2-yl)methyl)piperazine-2,3-dione], for which the EC50 is 27 nM. Under `CC(C)(C)N1CCN(Cc2nnc(-c3ccccc3)s2)C(=O)C1=O` [Example 307, 1-(tert-butyl)-4-((5-phenyl-1,3,4-thiadiazol-2-yl)methyl)piperazine-2,3-dione] stands 20 nM; under `N#CC1(N2CCN(Cc3nnc(-c4ccccc4)s3)C(=O)C2=O)CC1` [Example 308, 1-(2,3-dioxo-4-((5-phenyl-1,3,4-thiadiazol-2-yl)methyl)piperazin-1-yl)cyclopropane-1-carbonitrile], 35 nM.

For `O=C1C(=O)N(C2CCCC2)CCN1Cc1nnc(N2CCCCC2)s1` [Example 309, 1-cyclopentyl-4-((5-(piperidin-1-yl)-1,3,4-thiadiazol-2-yl)methyl)piperazine-2,3-dione], the EC50 worked out at 41 nM.

As to `O=C1C(=O)N(C2CCCC2)CCN1Cc1nnc(N2CCCC2)s1` [Example 310, 1-cyclopentyl-4-((5-(pyrrolidin-1-yl)-1,3,4-thiadiazol-2-yl)methyl)piperazine-2,3-dione], the EC50 stood at 41 nM.

`O=C1C(=O)N(C2CCCC2)CCN1Cc1nnc(N2CC[C@H](F)C2)s1` [Example 311, (S)-1-cyclopentyl-4-((5-(3-fluoropyrrolidin-1-yl)-1,3,4-thiadiazol-2-yl)methyl)piperazine-2,3-dione]: the EC50 was 60 nM. The figure for `O=C1C(=O)N(C2CCCC2)CCN1Cc1nnc(N2CC[C@H](CF)C2)s1` [Example 312, (S)-1-cyclopentyl-4-((5-(3-(fluoromethyl)pyrrolidin-1-yl)-1,3,4-thiadiazol-2-yl)methyl)piperazine-2,3-dione] is 69 nM; for `O=C1C(=O)N(C2CCCC2)CCN1Cc1nnc(N2CC3CC3C2)s1` (stereo not shown) [Example 313, 1-((5-(3-azabicyclo[3.1.0]hexan-3-yl)-1,3,4-thiadiazol-2-yl)methyl)-4-cyclopentylpiperazine-2,3-dione] it is 47 nM.

With `O=C1C(=O)N(C2CCCC2)CCN1Cc1ccc(N2CCCC2)nn1` [Example 314, 1-cyclopentyl-4-((6-(pyrrolidin-1-yl)pyridazin-3-yl)methyl)piperazine-2,3-dione], the EC50 is 43 nM.

On to `O=C1C(=O)N(C2CCCC2)CCN1Cc1ccc(N2CCCCC2)nn1` [Example 316, 1-cyclopentyl-4-((6-(piperidin-1-yl)pyridazin-3-yl)methyl)piperazine-2,3-dione], for which the concentration giving a half-maximal response (EC50) was 32 nM.

Consider `O=C1C(=O)N(C2CCCC2)CCN1Cc1ccc(N2CCOCC2)nn1` [Example 317, 1-cyclopentyl-4-((6-morpholinopyridazin-3-yl)methyl)piperazine-2,3-dione], for which the 50% effective concentration (EC50) amounted to 45 nM. Under `O=C1C(=O)N(C2CCCC2)CCN1Cc1ccc(N2CCC2)nn1` [Example 318, 1-((6-(azetidin-1-yl)pyridazin-3-yl)methyl)-4-cyclopentylpiperazine-2,3-dione] stands 36 nM. Consider `O=C1C(=O)N(C2CCCC2)CCN1Cc1ccc(N2CCC(F)(F)C2)nn1` [Example 319, 1-cyclopentyl-4-((6-(3,3-difluoropyrrolidin-1-yl)pyridazin-3-yl)methyl)piperazine-2,3-dione], for which the EC50 turned out to be 30 nM. For `O=C1C(=O)N(C2CCCC2)CCN1Cc1ccc(N2CC3CC3C2)nn1` (stereo not shown) [Example 320, 1-((6-(3-azabicyclo[3.1.0]hexan-3-yl)pyridazin-3-yl)methyl)-4-cyclopentylpiperazine-2,3-dione], the half-maximal effective concentration (EC50) was determined as 20 nM. For the compound `O=C1C(=O)N(C2CCCC2)CCN1Cc1ccc(-n2ccnn2)nn1` [Example 321, 1-((6-(1H-1,2,3-triazol-1-yl)pyridazin-3-yl)methyl)-4-cyclopentylpiperazine-2,3-dione], the half-maximal effective concentration (EC50) worked out at 21 nM.

Regarding `O=C1C(=O)N(C2CCCC2)CCN1Cc1ccc(-n2nccn2)nn1` [Example 322, 1-((6-(2H-1,2,3-triazol-2-yl)pyridazin-3-yl)methyl)-4-cyclopentylpiperazine-2,3-dione], the concentration for a half-maximal effect (EC50) was found to be 28 nM. Under `O=C1C(=O)N(C2CCCC2)CCN1Cc1nnc(-n2nccn2)s1` [Example 323, 1-((5-(2H-1,2,3-triazol-2-yl)-1,3,4-thiadiazol-2-yl)methyl)-4-cyclopentylpiperazine-2,3-dione] stands 157 nM. Under `O=C1C(=O)N(C2CCC2)CCN1Cc1cnc(-n2nccn2)cn1` [Example 324, 1-((5-(2H-1,2,3-triazol-2-yl)pyrazin-2-yl)methyl)-4-cyclobutylpiperazine-2,3-dione] stands 53 nM. The figure for `O=C1C(=O)N(C23CC(C2)C3)CCN1Cc1cnc(-n2nccn2)cn1` [Example 325, 1-((5-(2H-1,2,3-triazol-2-yl)pyrazin-2-yl)methyl)-4-(bicyclo[1.1.1]pentan-1-yl)piperazine-2,3-dione] is 33 nM.
